Experimental data reported in patent US6486381B1, “Genetically engineered mice containing alterations in the genes encoding retinoic acid receptor proteins” (Institut National de la Sante et de la Recherche Medicale, priority 1993, dated 2002).

Columns and labels:
Assay type in all cases: in vivo, mouse
[1] = tested on: wild type and RARβ2 null embryos; test: RA-induced hindbrain and forebrain alterations in wild type and RARβ2 null embryos (in situ hybridization); conditions: 25 mg/kg at 7.25 dpc
Description: For generation of hindbrain malformations timed mating experiments were performed and all-trans RA (Sigma) (25 mg/kg body weight) was administered to the mother by oral gavage at 7.25 dpc. Embryos were collected at 9.0 dpc, yolk sacs were taken for genotyping and embryos were fixed in 4% paraformaldehyde and embedded in paraffin for in situ hybridization on sections. For each embryo, three sets of alternate sections were hybridized to Hoxb-1, Krox-20 and Hoxa-3 probes. These probes have been described previously (Gaunt et al., Development 104 suppl.:71-82 (1988); Wilkinson et al., Nature 337:461-464 (1989); Hunt et al., Nature 353:861-864 (1991)). […] A separate series of embryos was processed for whole-mount in situ hybridization with a digoxigenin-labelled Hoxb-1 riboprobe. Both in situ hybridization procedures were performed as described in Décimo et al. (“In situ Hybridization to Cellular RNA,” in Gene Probes: A Practical Approach, Vol. 2, Hames et al., eds., Oxford University Press, Oxford, England, in press). For induction of limb malformations, all-trans RA was administered at 11.5 dpc (80 mg/kg) and fetuses were collected at 18.5 dpc and analyzed for skeletal malformations. For investigating induction of RARβ2 promoter activity in RARβ2 mutants, 25 mg/kg RA was administered at days 10.5 and 11.5 pc, then embryos were collected and stained for LacZ activity after 4 hours. For whole-mount skeletal analysis, fetuses were collected at 18.5 dpc by ceasarean section and skeletons were prepared as described (Lufkin et al., Nature 359:835-841 (1992)). Histological analysis was as in Lohnes et al. (Cell 73:643-658 (1993)) and lacZ staining as in Mendelsohn et al. (Development 113:723-734 (1991)).
RARβ2+/− intercrosses were set up, and pregnant females were given 25 mg/kg all-trans RA at 7.25 dpc, a dose which is known to produce rhombomeric alterations. […] Hoxb-1 expression was analyzed by whole-mount in situ hybridization.

[2] = tested on: wild type, RARγ+/− and RARγ−/− fetuses; test: RA-induced skeletal malformations in wild type, RARγ+/− and RARγ−/− offspring
Description: For whole mount skeletal analysis, fetuses were collected at day 18.5 p.c. and stored at −20° C. Skeletons were prepared as previously described (Lufkin et al., Nature 359:835-841 (1992)). For histological analysis, fetuses were skinned and then fixed in Bouin's fluid. Paraffin sections, 7 μm thick, were stained with Groat's hematoxylin and Mallory's trichrome. Organs were fixed in 10% formalin, and histological sections, 5 μm thick, were stained with hematoxylin and eosin. RARγ^+/− heterozygote animals were mated overnight and the presence of a vaginal plug at noon the next day considered as day 0.5 p.c. At various times, pregnant females received a single dose of RA dissolved in sunflower seed oil at a final delivery of 100 mg RA per kg animal. […] To determine if any of these malformations could be mediated by RARγ, pregnant dams from heterozygote crosses were treated with RA at day 8.5 or 9.0 p.c., and we examined day 18.5 p.c. fetuses for skeletal malformations. […] Comparison of RA-induced skeletal malformations in wild type, RARγ^+/− and RARγ^−/− offspring. […] Skeletons were prepared, and malformations scored under a dissecting microscope. Where possible, fetuses from the same litter were compared.

[3] = tested on: RARα1 null homozygotes; test: RA-induced malformations in RARα1 null homozygotes; conditions: RA at days 8.5-9.0 p.c.
[4] = tested on: RARγ2−/− animals; test: RA-induced skeletal malformations in RARγ2−/− animals; conditions: RARγ2−/− animals versus control littermates, identical conditions
[5] = tested on: wild type and RARβ2 null fetuses; test: RA-induced limb malformations in wild type and RARβ2 null fetuses; conditions: 80 mg/kg in utero at 11.5 dpc, fetuses at 18.5 dpc
Description: For generation of hindbrain malformations timed mating experiments were performed and all-trans RA (Sigma) (25 mg/kg body weight) was administered to the mother by oral gavage at 7.25 dpc. Embryos were collected at 9.0 dpc, yolk sacs were taken for genotyping and embryos were fixed in 4% paraformaldehyde and embedded in paraffin for in situ hybridization on sections. For each embryo, three sets of alternate sections were hybridized to Hoxb-1, Krox-20 and Hoxa-3 probes. These probes have been described previously (Gaunt et al., Development 104 suppl.:71-82 (1988); Wilkinson et al., Nature 337:461-464 (1989); Hunt et al., Nature 353:861-864 (1991)). […] A separate series of embryos was processed for whole-mount in situ hybridization with a digoxigenin-labelled Hoxb-1 riboprobe. Both in situ hybridization procedures were performed as described in Décimo et al. (“In situ Hybridization to Cellular RNA,” in Gene Probes: A Practical Approach, Vol. 2, Hames et al., eds., Oxford University Press, Oxford, England, in press). For induction of limb malformations, all-trans RA was administered at 11.5 dpc (80 mg/kg) and fetuses were collected at 18.5 dpc and analyzed for skeletal malformations. For investigating induction of RARβ2 promoter activity in RARβ2 mutants, 25 mg/kg RA was administered at days 10.5 and 11.5 pc, then embryos were collected and stained for LacZ activity after 4 hours. […]

[6] = RA 100 mg/kg single dose to dam at day 8.5 p.c., RARγ +/+ fetuses, day 18.5 p.c.
[7] = RA 100 mg/kg single dose to dam at day 8.5 p.c., RARγ +/− fetuses, day 18.5 p.c.
[8] = RA 100 mg/kg single dose to dam at day 8.5 p.c., RARγ −/− fetuses, day 18.5 p.c.
[9] = RA 100 mg/kg single dose to dam at day 9.0 p.c., +/−, fetuses day 18.5 p.c.
[10] = RA 100 mg/kg single dose to dam at day 9.0 p.c., RARγ +/− fetuses, day 18.5 p.c.
[11] = RA 100 mg/kg single dose to dam at day 9.0 p.c., RARγ −/− fetuses, day 18.5 p.c.

Hoxa-3 expression pattern ([1]; embryos collected at 9.0 dpc): No significant alteration
forebrain truncation ([1]; observed at 9.0-9.5 dpc, wild-type and RARβ2 null embryos): Severe truncations of the forebrain
Krox-20 transcripts (in situ hybridization) ([1]; RA-treated embryos): not detected in the putative R3
Caudal truncations [2, 6]: 11 (100%) fetuses (%)
Craniofacial malformations [2, 6]: 11 (100%) fetuses (%)
Degenerate ribs [2, 6]: 10 (91%) fetuses (%)
Homeotic transformations: 8 vertebrosternal ribs (T8 → T7) [2, 6]: 7 (64%) fetuses (%)
Homeotic transformations: 14 or 15 ribs (L → T) [2, 6]: 6 (54%) fetuses (%)
Caudal truncations [2, 7]: 13 (81%) fetuses (%)
Craniofacial malformations [2, 7]: 16 (100%) fetuses (%)
Degenerate ribs [2, 7]: 6 (38%) fetuses (%)
Homeotic transformations: 8 vertebrosternal ribs (T8 → T7) [2, 7]: 8 (50%) fetuses (%)
Homeotic transformations: 14 or 15 ribs (L → T) [2, 7]: 14 (87%) fetuses (%)
Malformed lumbar/sacral vertebrae [2, 7]: 3 (19%) fetuses (%)
Caudal truncations [2, 8]: 0 (0%) fetuses (%)
Craniofacial malformations [2, 8]: 10 (100%) fetuses (%)
Degenerate ribs [2, 8]: 0 (0%) fetuses (%)
Homeotic transformations: 8 vertebrosternal ribs (T8 → T7) [2, 8]: 6 (50%) fetuses (%)
Homeotic transformations: 14 or 15 ribs (L → T) [2, 8]: 7 (70%) fetuses (%)
Homeotic transformations: Number of lumbar vertebrae: 5 [2, 8]: 1 (10%) fetuses (%)
Homeotic transformations: Number of lumbar vertebrae: 6 [2, 8]: 9 (90%) fetuses (%)
Homeotic transformations: Number of lumbar vertebrae: 7 [2, 8]: 0 (0%) fetuses (%)
Malformed lumbar/sacral vertebrae [2, 8]: 0 (0%) fetuses (%)
Caudal truncations [2, 9]: 13 (100%) fetuses (%)
Craniofacial malformations [2, 9]: 13 (100%) fetuses (%)
Degenerate ribs [2, 9]: 0 (0%) fetuses (%)
Homeotic transformations: 8 vertebrosternal ribs (T8 → T7) [2, 9]: 7 (54%) fetuses (%)
Homeotic transformations: 14 or 15 ribs (L → T) [2, 9]: 7 (54%) fetuses (%)
Caudal truncations [2, 10]: 14 (58%) fetuses (%)
Craniofacial malformations [2, 10]: 24 (100%) fetuses (%)
Degenerate ribs [2, 10]: 0 (0%) fetuses (%)
Homeotic transformations: 8 vertebrosternal ribs (T8 → T7) [2, 10]: 9 (38%) fetuses (%)
Homeotic transformations: 14 or 15 ribs (L → T) [2, 10]: 8 (33%) fetuses (%)
Malformed lumbar/sacral vertebrae [2, 10]: 10 (42%) fetuses (%)
Caudal truncations [2, 11]: 0 (0%) fetuses (%)
Craniofacial malformations [2, 11]: 18 (100%) fetuses (%)
Degenerate ribs [2, 11]: 0 (0%) fetuses (%)
Homeotic transformations: 8 vertebrosternal ribs (T8 → T7) [2, 11]: 11 (61%) fetuses (%)
Homeotic transformations: 14 or 15 ribs (L → T) [2, 11]: 11 (61%) fetuses (%)
Homeotic transformations: Number of lumbar vertebrae: 5 [2, 11]: 1 (7%) fetuses (%)
Homeotic transformations: Number of lumbar vertebrae: 6 [2, 11]: 15 (83%) fetuses (%)
Homeotic transformations: Number of lumbar vertebrae: 7 [2, 11]: 3 (16%) fetuses (%)
Malformed lumbar/sacral vertebrae [2, 11]: 0 (0%) fetuses (%)
lumbar to thoracic, sacral to lumbar and lumbar to sacral vertebral transformations ([2]; RA-treated RARγ null homozygotes): also occurred
RA-induced truncations ([2]; RARγ heterozygotes, RA at day 8.5 p.c.): partially resistant
spina bifida, truncation of the axial skeleton in the post-thoracic region, degenerate or fused ribs, disorganized vertebral centres or malformed neural arches ([2]; RARγ−/− embryos exposed to RA at day 8.5 p.c.): none
truncations and associated defects ([2]; RARγ−/− littermates, RA at day 9.0 p.c.): never observed
resistance to RA-induced malformations (lumbosacral truncations) [3]: not observed
nature or extent of the limb malformations, wild type versus RARβ2 null fetuses [5]: no apparent differences
limb malformations (truncated long bones, missing digits) ([5]; wild type and RARβ2 null, compared to untreated): severely malformed limbs
Structure (SMILES): CC1=C(/C=C/C(C)=C/C=C/C(C)=C/C(=O)O)C(C)(C)CCC1 [RA, retinoic acid]
Hoxb-1 expression (in situ hybridization) ([1]; wild type and RARβ2 null mutants): rostral expansion of the Hoxb-1 transcript domain
lumbo-sacral vertebral malformations, including fusion of the neural arches and disorganized vertebral centres ([2]; RARγ+/− animals, RA-treated): always exhibited lumbo-sacral vertebral malformations
truncations and associated defects ([2]; WT embryos, RA at day 9.0 p.c. compared to day 8.5 p.c.): progressively more posterior truncations and associated defects
spina bifida, truncation of the axial skeleton in the post-thoracic region, degenerate or fused ribs, disorganized vertebral centres or malformed neural arches ([2]; WT fetuses exposed to RA at day 8.5 p.c.): All WT fetuses exhibited these malformations
type and frequency of RA-induced malformations [4]: same type and frequency of RA-induced malformations as control littermates
